“And” between values parts separate entries of the source, which are not always exact repeats. Identical values can stand only once. Inconclusive results and toxic doses are left out. Cut-off read from the data, not from the text of the source: active = T/C of 150% or more; inactive = T/C below 125%.
Tested on: L1210 leukemia ip in BDF1 mice, survival T/C
Assay: NCI In Vivo Anticancer Drug Screen. Data for tumor model L1210 Leukemia (intraperitoneal) in B6D2F1 (BDF1) mice
Conditions: higher = longer survival
How it was run: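 In this screen, tumor-bearing mice given compound are compared to those given vehicle, and their survival values are reported as a treated-to-control quotient.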

[1] = endpoint: mean survival time, dose: 100.0 mg/kg/injection, schedule: Q01DX009 (ip), vehicle: saline
[2] = endpoint: mean survival time, dose: 100.0 mg/kg/injection, schedule: Q04DX003 (ip), vehicle: saline
[3] = endpoint: mean survival time, dose: 200.0 mg/kg/injection, schedule: Q01DX009 (ip), vehicle: saline
[4] = endpoint: mean survival time, dose: 200.0 mg/kg/injection, schedule: Q04DX003 (ip), vehicle: saline
[5] = endpoint: mean survival time, dose: 400.0 mg/kg/injection, schedule: Q01DX001 (ip), vehicle: saline
[6] = endpoint: mean survival time, dose: 400.0 mg/kg/injection, schedule: Q04DX003 (ip), vehicle: saline
[7] = endpoint: mean survival time, dose: 50.0 mg/kg/injection, schedule: Q01DX009 (ip), vehicle: Klucel (hydroxypropylcellulose) (HPC)
[8] = endpoint: mean survival time, dose: 100.0 mg/kg/injection, schedule: Q01DX009 (ip), vehicle: Klucel (hydroxypropylcellulose) (HPC)
[9] = endpoint: mean survival time, dose: 100.0 mg/kg/injection, schedule: Q01DX009 (ip), vehicle: saline with Tween-80
[10] = endpoint: mean survival time, dose: 200.0 mg/kg/injection, schedule: Q01DX009 (ip), vehicle: saline with Tween-80
[11] = endpoint: mean survival time, dose: 100.0 mg/kg/injection, schedule: Q04DX003 (ip), vehicle: Klucel (hydroxypropylcellulose) (HPC)
[12] = endpoint: mean survival time, dose: 200.0 mg/kg/injection, schedule: Q04DX003 (ip), vehicle: Klucel (hydroxypropylcellulose) (HPC)
[13] = endpoint: mean survival time, dose: 400.0 mg/kg/injection, schedule: Q04DX003 (ip), vehicle: Klucel (hydroxypropylcellulose) (HPC)
[14] = endpoint: mean survival time, dose: 200.0 mg/kg/injection, schedule: Q01DX009 (ip), vehicle: Klucel (hydroxypropylcellulose) (HPC)
[15] = endpoint: mean survival time, dose: 100.0 mg/kg/injection, schedule: Q04DX003 (ip), vehicle: saline with Tween-80
[16] = endpoint: mean survival time, dose: 200.0 mg/kg/injection, schedule: Q04DX003 (ip), vehicle: saline with Tween-80
[17] = endpoint: mean survival time, dose: 400.0 mg/kg/injection, schedule: Q04DX003 (ip), vehicle: saline with Tween-80

Measured: T/C

CCOC(N)=O
inactive: endpoint: mean survival time, dose: 27.0 mg/kg/injection, schedule: Q03HX024 (ip), vehicle: saline 97 % of control | endpoint: mean survival time, dose: 40.0 mg/kg/injection, schedule: Q03HX024 (ip), vehicle: saline 110 % of control | endpoint: mean survival time, dose: 60.0 mg/kg/injection, schedule: Q03HX024 (ip), vehicle: saline 95 % of control | endpoint: mean survival time, dose: 62.6 mg/kg/injection, schedule: Q01DX Z (ip), vehicle: carboxymethylcellulose (CMC) 106 % of control | endpoint: mean survival time, dose: 90.0 mg/kg/injection, schedule: Q03HX024 (ip), vehicle: saline 101 % of control | [1] 102 % of control | [2] 95 % of control | endpoint: mean survival time, dose: 120.0 mg/kg/injection, schedule: Q01DX009 (ip), vehicle: saline 98 % of control | endpoint: mean survival time, dose: 125.0 mg/kg/injection, schedule: Q01DX010 (ip), vehicle: saline 110 % of control and 87 % of control | endpoint: mean survival time, dose: 125.0 mg/kg/injection, schedule: Q01DX Z (ip), vehicle: saline 115 % of control | endpoint: mean survival time, dose: 125.25 mg/kg/injection, schedule: Q01DX Z (ip), vehicle: carboxymethylcellulose (CMC) 101 % of control | endpoint: mean survival time, dose: 135.0 mg/kg/injection, schedule: Q03HX024 (ip), vehicle: saline 110 % of control | endpoint: mean survival time, dose: 180.0 mg/kg/injection, schedule: Q01DX009 (ip), vehicle: saline 102 % of control | endpoint: mean survival time, dose: 188.0 mg/kg/injection, schedule: Q01DX Z (ip), vehicle: saline 100 % of control | [3] 104 % of control | [4] 101 % of control | endpoint: mean survival time, dose: 250.0 mg/kg/injection, schedule: Q01DX010 (ip), vehicle: saline 111 % of control and 112 % of control | endpoint: mean survival time, dose: 250.0 mg/kg/injection, schedule: Q01DX Z (ip), vehicle: saline 94 % of control | endpoint: mean survival time, dose: 250.5 mg/kg/injection, schedule: Q01DX Z (ip), vehicle: carboxymethylcellulose (CMC) 106 % of control | endpoint: mean survival time, dose: 266.0 mg/kg/injection, schedule: Q01DX001 (ip), vehicle: saline 100 % of control | endpoint: mean survival time, dose: 270.0 mg/kg/injection, schedule: Q01DX009 (ip), vehicle: saline 108 % of control | endpoint: mean survival time, dose: 280.0 mg/kg/injection, schedule: Q02DX010 (ip), vehicle: carboxymethylcellulose (CMC) 109 % of control | endpoint: mean survival time, dose: 375.0 mg/kg/injection, schedule: Q01DX Z (ip), vehicle: saline 110 % of control | [5] 119 % of control | endpoint: mean survival time, dose: 400.0 mg/kg/injection, schedule: Q01DX009 (ip), vehicle: saline 107 % of control and 110 % of control | [6] 100 % of control | endpoint: mean survival time, dose: 500.0 mg/kg/injection, schedule: Q01DX010 (ip), vehicle: saline 123 % of control | endpoint: mean survival time, dose: 500.0 mg/kg/injection, schedule: Q01DX Z (ip), vehicle: saline 105 % of control | endpoint: mean survival time, dose: 501.0 mg/kg/injection, schedule: Q01DX Z (ip), vehicle: carboxymethylcellulose (CMC) 108 % of control | endpoint: mean survival time, dose: 600.0 mg/kg/injection, schedule: Q01DX001 (ip), vehicle: saline 121 % of control | endpoint: mean survival time, dose: 600.0 mg/kg/injection, schedule: Q01DX009 (ip), vehicle: saline 98 % of control | endpoint: mean survival time, dose: 750.0 mg/kg/injection, schedule: Q01DX Z (ip), vehicle: saline 103 % of control | endpoint: mean survival time, dose: 1000.0 mg/kg/injection, schedule: Q01DX010 (ip), vehicle: saline 94 % of control | endpoint: mean survival time, dose: 1000.0 mg/kg/injection, schedule: Q01DX Z (ip), vehicle: saline 105 % of control | endpoint: mean survival time, dose: 1074.0 mg/kg/injection, schedule: Q01DX001 (ip), vehicle: saline 115 % of control | endpoint: median survival time, dose: 125.0 mg/kg/injection, schedule: Q01DX009 (ip), vehicle: saline 100 % of control | endpoint: median survival time, dose: 250.0 mg/kg/injection, schedule: Q01DX009 (ip), vehicle: saline 100 % of control | endpoint: median survival time, dose: 500.0 mg/kg/injection, schedule: Q01DX009 (ip), vehicle: saline 100 % of control and 110 % of control | endpoint: median survival time, dose: 1000.0 mg/kg/injection, schedule: Q01DX009 (ip), vehicle: saline 87 % of control

COc1ccc(NC(=O)Oc2ccc(C(C)=O)cc2)cc1
inactive: endpoint: mean survival time, dose: 25.0 mg/kg/injection, schedule: Q01DX009 (ip), vehicle: Klucel (hydroxypropylcellulose) (HPC) 100 % of control | [7] 94 % of control | [8] 97 % of control and 91 % of control

NC1=CC(=O)C(=O)c2cccnc21
inactive: endpoint: mean survival time, dose: 75.0 mg/kg/injection, schedule: Q01DX001 (ip), vehicle: other 92 % of control

O=C(NC(C(=O)O)c1ccccc1)OCc1ccccc1 (configuration not stated)
inactive: [9] 111 % of control and 97 % of control | [10] 91 % of control and 92 % of control | endpoint: mean survival time, dose: 400.0 mg/kg/injection, schedule: Q01DX009 (ip), vehicle: saline with Tween-80 89 % of control and 93 % of control

N#Cc1c2ccccc2c(=N)n2ccccc12
inactive: endpoint: mean survival time, dose: 100.0 mg/kg/injection, schedule: Q01DX001 (ip), vehicle: Klucel (hydroxypropylcellulose) (HPC) 95 % of control | [11] 98 % of control | endpoint: mean survival time, dose: 200.0 mg/kg/injection, schedule: Q01DX001 (ip), vehicle: Klucel (hydroxypropylcellulose) (HPC) 105 % of control | [12] 104 % of control | endpoint: mean survival time, dose: 400.0 mg/kg/injection, schedule: Q01DX001 (ip), vehicle: Klucel (hydroxypropylcellulose) (HPC) 95 % of control | [13] 114 % of control

Cc1ccc(NC(=S)N(CCC#N)C2CCCCC2)cc1C
inactive: endpoint: mean survival time, dose: 100.0 mg/kg/injection, schedule: Q04DX002 (ip), vehicle: Klucel (hydroxypropylcellulose) (HPC) 97 % of control | endpoint: mean survival time, dose: 200.0 mg/kg/injection, schedule: Q04DX002 (ip), vehicle: Klucel (hydroxypropylcellulose) (HPC) 90 % of control | endpoint: mean survival time, dose: 400.0 mg/kg/injection, schedule: Q04DX002 (ip), vehicle: Klucel (hydroxypropylcellulose) (HPC) 90 % of control

CC1=C(/C=C/C(C)=N/NC(N)=O)C(C)(C)CCC1
inactive: [1] 100 % of control | [2] 94 % of control | [3] 100 % of control | [4] 102 % of control | [6] 96 % of control

CN(Cc1cnc2nc(N)nc(N)c2n1)c1ccccc1
inactive: endpoint: mean survival time, dose: 20.0 mg/kg/injection, schedule: Q01DX009 (ip), vehicle: saline with Tween-80 97 % of control | endpoint: mean survival time, dose: 40.0 mg/kg/injection, schedule: Q01DX009 (ip), vehicle: saline with Tween-80 101 % of control | endpoint: mean survival time, dose: 80.0 mg/kg/injection, schedule: Q01DX009 (ip), vehicle: saline with Tween-80 98 % of control

CC(=O)Nc1cccc(OCCCOc2cccc(C(=N)N)c2)c1
inactive: [7] 103 % of control | [8] 100 % of control | [14] 94 % of control

O=C(O)c1cccc(C(=O)Oc2ccccc2-c2ccccc2)c1
inactive: endpoint: mean survival time, dose: 50.0 mg/kg/injection, schedule: Q01DX009 (ip), vehicle: saline with Tween-80 94 % of control | [9] 87 % of control | [10] 94 % of control

O=C(O)CC1(C(=O)O)CCN(Cc2ccccc2)CC1
inactive: [11] 103 % of control | [12] 102 % of control | [13] 100 % of control

CC(=O)Oc1cc([N+](=O)[O-])ccc1C(=O)O
inactive: [15] 96 % of control | [16] 91 % of control | [17] 94 % of control

CCOC(=O)C(C)C(OCC)OCC (configuration not stated)
inactive: [8] 96 % of control | [11] 90 % of control | [14] 104 % of control | [12] 103 % of control | endpoint: mean survival time, dose: 400.0 mg/kg/injection, schedule: Q01DX009 (ip), vehicle: Klucel (hydroxypropylcellulose) (HPC) 89 % of control | [13] 107 % of control

COC(OC)c1nc(N)nc(N)c1-c1ccc(F)cc1
inactive: [15] 94 % of control | [16] 96 % of control | [17] 96 % of control

COC(=O)c1c[nH]c(=O)cc1O
inactive: endpoint: mean survival time, dose: 100.0 mg/kg/injection, schedule: Q01DX001 (ip), vehicle: saline 101 % of control | endpoint: mean survival time, dose: 200.0 mg/kg/injection, schedule: Q01DX001 (ip), vehicle: saline 98 % of control | [5] 98 % of control

CC(C)(O)C(O)C(=O)O (configuration not stated)
inactive: [1] 92 % of control | [2] 106 % of control | [3] 89 % of control | [4] 104 % of control | [6] 97 % of control

— PubChem BioAssay AID248 (DTP/NCI, 2004)
